The values that follow come from US20170035791A1, “COMBINATION OF BETA-GLUCOSYLCERAMIDE AND POLYETHOXYLATED CASTOR OIL AND OTHER ADJUVANTS FOR CONTROLING BLOOD SUGAR LEVELS, IMMUNOPROTECTION AND HEPATOPROTECTION” (NATURAL SHIELD ISRAEL 2016 LTD, priority 2014, published 2017).

Assay [1] deals with C57B1/6 mice. Briefly: Blood sugar AUC in mice after oral Coca Cola with GC and/or CE add-on. Format: in vivo. The settings on record: Coca Cola + add-on 350 μl/mouse by gavage, glucose at 0, 15, 30 min, Coca Cola alone 4785 ± 208. How it is done: Male C57B1/6 mice (11-12 weeks old) were obtained from Harlan Laboratories (Jerusalem, Israel) and maintained in the Animal Core of the Hadassah-Hebrew University Medical School. All mice were administered standard laboratory chow and water ad libitum and kept in a 12-hour light/dark cycle. SSBs (Coca Cola or orange flavored soda) including additives GC and/or CE were orally administered in a volume of 300-350 μl per mouse by gavage. The animal experiments were carried out according to the guidelines of the Hebrew University-Hadassah Institutional Committee for Care and Use of Laboratory Animals and with the committee's approval. […]
To evaluate the ability of GC to control blood sugar levels during consumption of a high glucose beverage, the inventors examined the effect of GC alone and of GC with CE combination, on mice consuming various high sugar soft drinks. […] Glucose levels were measured at 0, 15, and 30 min after Coca Cola administration.
To further evaluate the effect of C:E on blood sugar levels following consumption of Coca Cola, the inventors performed the experiment in Table 2, including group A receiving orally Coca Cola +C:E (350 μl/mouse by gavage) and group B receiving Coca Cola only (300 μl/mouse by gavage). Glucose levels were measured at 0, 15, and 30 min after Coca Cola administration.

Assay [2] has as its system C57B1/6 mice. Briefly: Glucose tolerance test (GTT) in mice after Coca Cola with GC in C:E, GC in ethanol or C:E (Table 5, FIG. 5). Format: in vivo. The settings on record: Coca Cola + add-on. How it is done:
Male C57B1/6 mice (11-12 weeks old) were obtained from Harlan Laboratories (Jerusalem, Israel) and maintained in the Animal Core of the Hadassah-Hebrew University Medical School. All mice were administered standard laboratory chow and water ad libitum and kept in a 12-hour light/dark cycle. SSBs (Coca Cola or orange flavored soda) including additives GC and/or CE were orally administered in a volume of 300-350 μl per mouse by gavage. The animal experiments were carried out according to the guidelines of the Hebrew University-Hadassah Institutional Committee for Care and Use of Laboratory Animals and with the committee's approval.
Beta-glucosylceramide (GC) solution consisted of 60 mg GC (purchased from Avanti Polar Lipids; Alabaster, Ala., USA) dissolved in 1 ml mixture of 30% Cremophor EL (Sigma, Rehovot, Israel) and ethanol (1:1; CE) or ethanol alone. These served basis for preparation of SSBs containing GC and/or CE, including 1800 μl Coca Cola or other SSB and 400 μl GC in CE or ethanol or CE alone.
Mice undergo a glucose tolerance test on day 60. Glucose is administered orally (1 g per kg). Serum glucose measurements is performed on tail-vein blood every fifteen minutes for three hours. Glucose levels are measured by a standard glucometer. […]

Assay [3] deals with ConA mouse model. Kind of assay: Concanavalin A (ConA) induced immune-mediated hepatitis, serum ALT and AST. The settings on record: ConA 0.5 mg/mouse i.v., oral GC 3 mg/mouse or C:E 30 μl/mouse, 15 hours following ConA. Format: in vivo, mice. How it is done:
Concanavalin A solution (ConA; purchased from MP Biomedicals, USA) consisted of 2 mg ConA in 1 ml distilled water. Mice were intravenously (IV) injected with 250 μl ConA solution (0.5 mg/mouse).
(§1) Mice were tested for serum alanine transaminase (ALT) and aspartate aminotransferase (AST) at 24 hours after acetaminophen administration. Serum AST and ALT levels were measured by an automatic analyzer.
The inventors next examined the effect of the combination of GC and C:E on the immune-mediated hepatitis in Con A mouse model. Details on the relevant experimental procedures are given above in experimental procedures. In brief, mice were injected i.v. with 250 μl ConA (0.5 mg/mouse) for 15 hrs prior to oral treatments, including C:E: ethanol 1:1 solution administered (30 μl/mouse); GC with CE as 100 mg GC dissolved in 1 ml C:E or GC in ethanol as 100 mg GC dissolved in 1 ml ethanol abs. administered (3 mg/mouse); control as PBS administered (30 μl/mouse).

Assay [4] concerns APAP-mediated liver toxicity in male adult mice. Briefly: Acetaminophen (APAP) mediated liver toxicity, serum ALT. In kind it is in vivo. To be noted: APAP 4.6 mg/mouse; oral treatment 1 hour after APAP, GC 3 mg/mouse or C:E 30 μl/mouse; 24 hours after APAP; control 15612. How it is done:
Acetaminophen powder (APAP; was purchased from Sigma, cat. # A7085), was dissolved in a mixture of 30% Cremophor EL (Sigma, Rehovot, Israel) and ethanol (1:1) in DDW (Di distilled water).
as §1
APAP-mediated liver toxicity was induced in male adult mice fasted overnight and 2 hours after APAP administration. APAP was i.v. injected at the concentration of 4.6 mg/mouse. Various treatments, GC or C:E alone, GC with C:E and controls, were administered 1 hour after APAP injection. For various oral treatments, C:E: Cremophor:ethanol 1:1 solution was administered (30 μl/mouse); GC with CE: 100 mg GC dissolved in 1 ml C:E or GC in ethanol: 100 mg GC dissolved in 1 ml Ethanol Abs. were administered (3 mg/mouse); Control:PBS administered (30 μl/mouse).
All mice were sacrificed 24 hours after APAP administration and serum levels of ALT were measured.

In assay [5] the test system is human subject. Briefly: Blood sugar levels in a human subject after drinking Coca Cola with GC or GC with CE add-ons. Format: in vivo. The settings on record: 500 ml Coca Cola with 28 mg GC add-on. Here is the method:
A human subject healthy person was monitored for blood sugar levels for 2 hours every 15 minutes following an overnight fast and drinking of 500 ml of Coca Cola alone or Coca Cola with GC or GC with CE add-ons.

For assay [6], the system named is alcohol induced liver damage mouse model. Kind of assay: Alcohol induced liver damage in a mouse model, ALT. To be noted: mice, alcohol 6 gr/kg by gavage with 6 microgram GC; after 16 hours; EtOH alone 414, naive 28. In kind it is in vivo. Here is the method:
The inventors further characterized the ameliorating effect of the GC—the alcohol induced liver damage in a mouse model. Table 9 summarizes the relevant experimental groups, including group A of naïve mice; group B receiving alcohol 6 gr/kg-300 μl of 70% Ethanol per mouse/gavage i.e. 3500 μl EtOH Abs.+1500 μl sterile water (Ethanol is equal to 6 gr/kg for 27.5 gr mouse body weight).; Group C receiving 6 microgram of GC with alcohol. Mice were sacrificed after 16 hours and the level of liver enzymes was evaluated.

Beta-glucosylceramide [GC]: the “AUC 30 minutes (blood sugar levels)” value in assay [1] stood at 4381.25 ± 320. In addition, the “AUC at 30 minutes, effect compared to controls (FIG. 5B)” value in assay [2] is “significant”. The “AST (serum)” value in assay [3] (control 8807) is 2231. Moreover, the “ALT (serum)” value is 1875 in assay [3] (control 8887) and 9290 in assay [4]. For the same substance, the Glucose in assay [5] (time 15 min) came out at 128 mg %; in assay [5] (time 30 min), 135 mg %; in assay [5] (time 45 min), 152 mg %; in assay [5] (time 60 min) it was 132 mg %; in assay [5] (time 75 min), 124 mg %; in assay [5] (time 90 min) it was 124 mg %. Also, the Glucose in assay [5] (time 105 min) worked out at 96 mg %; in assay [5] (time 120 min), 96 mg %; in assay [5] (overnight fast, time 0 min), 95 mg %. Moreover, in assay [6], the ALT levees was 73.
